# According to patent US20130231346A1, “METHODS OF TREATING CANCER” (GLAXOSMITHKLINE INTELLECTUAL PROPERTY (NO.2) LIMITED, priority 2010, published 2013):
# Assays:
# [1] = test system: H727 NSCLC cells; assay: Caspase 3/7 activation, H727; format: cell-based; design: key: −: lack of caspase 3/7 activation after 24 hours of compound treatment; ++: moderate; +++: strong; ++++: very strong; details: H727, KRAS^G12V; BRG1 WT, LKB1 WT, CDKN2A WT; 24 hours
# Protocol: (§2) Inhibition of cell growth and induction of apoptosis were determined by CellTiter-Glo® and caspase 3/7 activation assays after 72 and 24 hours of treatment, respectively.
# [2] = test system: hematopoietic cancers from acute or chronic myeloid leukemia (AML or CML) origins; assay: Cell proliferation assays, AML/CML lines; format: cell-based; details: in vitro
# Excerpt: (§1) MEK proteins are a node in a certain extracellular signal-related kinase ERK pathway which is commonly hyper-activated In tumor cells. Oncogenic mutations in both B-raf and Ras signal through MEK1 and MEK2. In vitro, 80% of cell lines carrying activating mutations of B-Raf and 72% of Ras mutant cell lines were sensitive to N-{3-[3-cyclopropyl-5-(2-fluoro-4-iodo-phenylamino)-6,8-dimethyl-2,4,7-trioxo-3,4,6,7-tetrahydro-2H-pyrido[4,3-d]pyrimidin-1-yl]phenyl}acetamide, or a pharmaceutically acceptable salt in cell proliferation assays, and a majority (83% of hematopoietic cancers from acute or chronic myeloid leukemia (AML or CML, respectively) origins were also very sensitive.
# [3] = test system: Calu6 NSCLC cells; assay: Caspase 3/7 activation, Calu6; format: cell-based; design: key: −: lack of caspase 3/7 activation after 24 hours of compound treatment; ++: moderate; +++: strong; ++++: very strong; details: Calu6, KRAS^Q61K; BRG1 WT, LKB1 WT, CDKN2A WT; 24 hours
# Protocol: as §2
# [4] = test system: H441 NSCLC cells; assay: Caspase 3/7 activation, H441; format: cell-based; design: key: −: lack of caspase 3/7 activation after 24 hours of compound treatment; ++: moderate; +++: strong; ++++: very strong; details: H441, KRAS^G12V; BRG1 WT, LKB1 WT, CDKN2A WT; 24 hours
# Protocol: as §2
# [5] = test system: H460 NSCLC cells; assay: Caspase 3/7 activation, H460; format: cell-based; design: key: −: lack of caspase 3/7 activation after 24 hours of compound treatment; ++: moderate; +++: strong; ++++: very strong; details: H460, KRAS^Q61H; BRG1 WT, LKB1 MUT, CDKN2A MUT; 24 hours
# Protocol: (§3) A panel of 24 non-small cell lung carcinoma (NSCLC) cell lines harboring RAS mutations was analyzed for genomic alterations, gene expression profiling and protein phosphorylation in MAPK and PI3K pathways. Inhibition of cell growth and induction of apoptosis were determined by CellTiter-Glo® and caspase 3/7 activation assays after 72 and 24 hours of treatment, respectively.
# [6] = test system: A549 NSCLC cells; assay: Caspase 3/7 activation, A549; format: cell-based; design: key: −: lack of caspase 3/7 activation after 24 hours of compound treatment; ++: moderate; +++: strong; ++++: very strong; details: A549, KRAS^G12S; BRG1 MUT, LKB1 MUT, CDKN2A MUT; 24 hours
# Protocol: as §2
# [7] = test system: Ras mutant cell lines; assay: Cell proliferation assays, Ras mutant cell lines; format: cell-based; details: in vitro
# Excerpt: as §1
# [8] = test system: RAS-mutant NSCLC cell lines; assay: Inhibition of cell growth (CellTiter-Glo) in panel of RAS-mutant NSCLC cell lines; details: Ras mut NSCLC cell lines; CellTiter-Glo, 72 hours of treatment
# Protocol: Cells are plated in 384-well plates at 500 cells/well in culture media appropriate for each cell type, supplemented with 10% FBS and 1% penicillin/streptomycin, and incubated overnight at 37° C., 5% CO2. Cells are treated in a grid manner with dilution of Compound A^2 (20 dilutions, including no compound, of 2-fold dilutions starting from 1-20 μM depending of compound) from left to right on 384-well plate and also treated with Compound B^2 (20 dilutions, including no compound, of 2-fold dilutions starting from 1-20 μM depending of compound) from top to bottom on 384-well plate and incubated as above for a further 72 hours. In some instances compounds are added in a staggered manner and incubation time can be extended up to 7 days. Cell growth is measured using CellTiter-Glo® reagent according to the manufacturer's protocol and signals are read on a PerkinElmer EnVision™ reader set for luminescence mode with a 0.5-second read.
# Results are expressed as a percentage of the t=0 value and plotted against compound(s) concentration. The t=0 value is normalized to 100% and represents the number of cells present at the time of compound addition. The cellular response is determined for each compound and/or compound combination using a 4- or 6-parameter curve fit of cell viability against concentration using the IDBS XLfit plug-in for Microsoft Excel software and determining the concentration required for 50% inhibition of cell growth (gIC50). Background correction is made by subtraction of values from wells containing no cells.
# as §3
# [9] = test system: H157 NSCLC cells; assay: Caspase 3/7 activation, H157; format: cell-based; design: key: −: lack of caspase 3/7 activation after 24 hours of compound treatment; ++: moderate; +++: strong; ++++: very strong; details: H157, KRAS^G12R; BRG1 MUT, LKB1 MUT, CDKN2A WT; 24 hours
# Protocol: as §3
# [10] = test system: cell lines carrying activating mutations of B-Raf; assay: Cell proliferation assays, B-Raf mutant cell lines; format: cell-based; details: in vitro
# Excerpt: as §1
# [11] = test system: RAS-mutant NSCLC cell lines; assay: Induction of apoptosis (caspase 3/7 activation) in panel of RAS-mutant NSCLC cell lines; format: cell-based; details: Ras mut NSCLC cell lines, caspase 3/7 activation, 24 hours of treatment, trihydrate
# Protocol: as §3
SMILES,Apoptosis Response (caspase 3/7 activation) [1],Share of hematopoietic cancers very sensitive in cell proliferation assays [2] [%],Apoptosis Response (caspase 3/7 activation) [3],Apoptosis Response (caspase 3/7 activation) [4],Apoptosis Response (caspase 3/7 activation) [5],Apoptosis Response (caspase 3/7 activation) [6],Share of cell lines sensitive in cell proliferation assays [7] [%],"Response Rate (sensitivity/total lines tested), Cell growth inhibition [8]",Apoptosis Response (caspase 3/7 activation) [9],Share of cell lines sensitive in cell proliferation assays [10] [%],"Response Rate (sensitivity/total lines tested), Cell Apoptosis (capsase 3/7) ([11]; listed as docetaxel) [%]","Response Rate (sensitivity/total lines tested), Cell Apoptosis (capsase 3/7) [11]"
"CC(=O)Nc1cccc(-n2c(=O)n(C3CC3)c(=O)c3c(Nc4ccc(I)cc4F)n(C)c(=O)c(C)c32)c1 [Compound A, N-{3-[3-cyclopropyl-5-(2-fluoro-4-iodo-phenylamino)-6,8-dimethyl-2,4,7-trioxo-3,4,6,7-tetrahydro-2H-pyrido[4,3-d]pyrimidin-1-yl]phenyl}acetamide]",++,83,++,−,−,−,72,38% (9/24),−,80,,
"CC(=O)O[C@@]12CO[C@@H]1C[C@H](O)[C@@]1(C)C(=O)[C@H](O)C3=C(C)[C@@H](OC(=O)[C@H](O)[C@@H](NC(=O)OC(C)(C)C)c4ccccc4)C[C@@](O)([C@@H](OC(=O)c4ccccc4)[C@H]21)C3(C)C [Docataxel, (2R,3S)—N-carboxy-3-phenylisoserine,N-tert-butyl ester, 13-ester with 5β-20-epoxy-1,2α,4,7β,10β,13α-hexahydroxytax-11-en-9-one 4-acetate 2-benzoate, trihydrate]",−,,++,−,++,−,,88% (21/24),++,,42,42% (10/24)
